Measured values published in ChEMBL document CHEMBL4145637, “Libertellenones O-S and Eutypellenones A and B, Pimarane Diterpene Derivatives from the Arctic Fungus Eutypella sp. D-1” (J Nat Prod, 2018).
Calls of active or inactive are those of the source. The rule behind the calls is not given here.

What was measured:
[1] = test system: HeLa; assay: Cytotoxicity against human HeLa cells after 72 hrs by CCK8 assay; format: functional, cell-based
[2] = test system: MCF7; assay: Cytotoxicity against human MCF7 cells after 72 hrs by CCK8 assay; format: functional, cell-based; conditions: MCF7, 72 h
[3] = test system: HCT-116; assay: Cytotoxicity against human HCT116 cells after 72 hrs by CCK8 assay; format: functional, cell-based; conditions: HCT-116, 72 h
[4] = test system: PANC-1; assay: Cytotoxicity against human PANC1 cells after 72 hrs by CCK8 assay; format: functional, cell-based; conditions: PANC-1, 72 h
[5] = test system: SW1990; assay: Cytotoxicity against human SW1990 cells after 72 hrs by CCK8 assay; format: functional, cell-based; conditions: SW1990, 72 h
[6] = test system: HEK293; assay: Inhibition of TNFalpha-stimulated NFkappaB (unknown origin) expressed in HEK293 cells pretreated for 2 hrs followed by TNFalpha stimulation and measured after 6 hrs by luciferase reporter gene assay; format: cell-based; conditions: Homo sapiens
[7] = test system: RAW264.7; assay: Inhibition of LPS-induced nitric oxide production in […] RAW264.7 cells at 2.5 to 20 uM pretreated for 2 hrs followed by LPS-stimulation and measured after 20 hrs by Griess assay; format: functional, cell-based

SMILES	IC50 [1]	IC50 [2]	IC50 [3]	IC50 [4]	IC50 [5]	inhibition [6]	inhibition [7]
C=C[C@]1(C)C=C2C(=O)C(O)=C3[C@](C)(COC(=O)CC)[C@H](OC(C)=O)C[C@H]4C[C@@]34[C@@]2(O)CC1	2.6 µM	2.9 µM	1.9 µM	3.6 µM	1 µM	–	–
C=C[C@]1(C)C=C2C(=O)C(O)=C3[C@@]4(O)[C@H](C[C@H](OC(C)=O)[C@]3(C)COC(=O)C(C)C)C[C@]24CC1	13.1 µM	10.7 µM	12.6 µM	12.1 µM	10.3 µM	Dose-dependent effect	Active
C=C[C@@]1(C)CCC2=C(C(=O)O[C@@H]3CC[C@@]4(C)COC(=O)[C@@H]4[C@]23C)[C@H]1O	> 50 µM	> 50 µM	> 50 µM	> 50 µM	> 50 µM	–	–
C=C[C@]1(C)C=C2C(=O)C(=O)[C@H]3[C@](C)(COC(=O)C(C)C)[C@H](OC(C)=O)C[C@H]4C[C@]43[C@@]2(O)CC1	> 50 µM	> 50 µM	29.4 µM	> 50 µM	> 50 µM	–	–
C=C[C@]1(C)C=C2C(=O)C(O)=C3[C@](C)(COC(=O)C(C)C)[C@H](O)C[C@H]4C[C@@]34[C@@]2(O)CC1	1.2 µM	1.1 µM	1.3 µM	2.1 µM	0.8 µM	–	–
C=C[C@]1(C)C=C2C(=O)[C@H](O)[C@H]3[C@](C)(COC(=O)C(C)C)[C@H](OC(C)=O)C[C@H]4C[C@]43[C@@]2(O)CC1	> 50 µM	> 50 µM	> 50 µM	26.6 µM	> 50 µM	–	–
C=C[C@]1(C)C=C2C(=O)C(O)=C3[C@@]4(OC)[C@H](C[C@H](OC(C)=O)[C@]3(C)COC(=O)C(C)C)C[C@]24CC1	6 µM	8.3 µM	8.4 µM	7 µM	8 µM	Dose-dependent effect	Active
C=C[C@]1(C)C=C2C(=O)C(O)=C3[C@](C)(COC(C)=O)[C@H](OC(C)=O)C[C@H]4C[C@@]34[C@@]2(O)CC1	3.1 µM	4.1 µM	2.2 µM	6 µM	2.4 µM	–	–
C=C[C@]1(C)C=C2C(=O)C(O)=C3[C@](C)(COC(=O)C(C)C)[C@H](OC(C)=O)C[C@H]4C[C@@]34[C@@]2(O)CC1	0.7 µM	1.4 µM	1 µM	1.8 µM	0.3 µM	–	–
